Experimental data as given in article PMC11855827, “High-Throughput Screening of Five Compound Libraries for Anthelmintic Activity and Toxicity Leads to the Discovery of Two Flavonoid Compounds” (International Journal of Molecular Sciences, 2025).
Where two headings read alike, the source gives them in different places.

Test system: C. elegans
Test: microbe, parasite or virus in culture
Settings: Caenorhabditis elegans
[1] = 0 h, read-out: Percentage of motility inhibition 0 h, Table S2, C. elegans SS assay, 110 μM, 0 h, averages of 4 data points
[2] = 24 h, read-out: Percentage of motility inhibition 24 h, Table S2, C. elegans SS assay, 110 μM, 24 h, averages of 4 data points
[3] = 0 h, read-out: Percentage of motility inhibition 0 h
[4] = 24 h, read-out: Percentage of motility inhibition 24 h

SMILES	inhibition at 110 µM [1]	inhibition at 110 µM [2]	inhibition at 110 µM [3]	inhibition at 110 µM [4]
CC=C1CN(C)C2Cc3c([nH]c4ccccc34)C(c3cc4[nH]c5c(c4cc3OC)CCN3CC4CC(CC)C3C5(C(=O)OC)C4)CC1C2C(=O)OC (centres unmarked) [Voacamine]	0%	0%	–	–
C[C@H]1CO[C@@H]2Cn3cc(C(=O)NCc4ccc(F)cc4F)c(=O)c(O)c3C(=O)N12 [Cabotegravir]	19%	7%	–	–
C=C1CCC2CC1C2(C)C (stereo not drawn) [β-Pinene]	2%	12%	–	–
C[C@@]12CC[C@@H]3[C@@](CC[C@H]4[C@@]3(C)CCC[C@@]4(C)C(=O)O)(CC1=O)C2 [Isosteviol]	0%	2%	–	–
CC1=C(C(=O)O)N2C(=O)[C@@H](NC(=O)[C@H](N)c3ccccc3)[C@H]2SC1 [Cephalexin]	21%	13%	–	–
CSCC1CN(/N=C/c2ccc([N+](=O)[O-])o2)C(=O)O1 (centres unmarked) [Nifuratel]	0%	4%	–	–
CC(=O)O[C@]12CCC(C(=O)O)=CC[C@]13CC[C@H]2[C@@](C)(/C=C/C=C(\C)C(=O)O)OC3=O [Pseudolaric Acid C2]	0%	0%	–	–
C[C@H]1[C@H](C)CC[C@]2(C(=O)O)CC[C@]3(C)C(=CC[C@@H]4[C@@]5(C)C[C@@H](O)[C@H](O)[C@@](C)(CO)[C@@H]5[C@H](O)C[C@]43C)[C@H]12 [Madecassic acid]	1%	31%	–	–
NC[C@H]1O[C@H](O[C@H]2[C@H](O)[C@@H](O[C@H]3O[C@H](CO)[C@@H](O)[C@H](N)[C@H]3O)[C@H](N)C[C@@H]2N)[C@H](N)C[C@@H]1O [Tobramycin]	9%	0%	–	–
C[N+](C)(C)CCOP(=O)(O)OP(=O)([O-])OC[C@H]1O[C@@H](n2ccc(N)nc2=O)[C@H](O)[C@@H]1O [Citicoline]	0%	0%	–	–
NC(=O)c1ccccc1O [Salicylamide]	2%	0%	–	–
CCS(=O)(=O)CCn1c([N+](=O)[O-])cnc1C [Tinidazole]	25%	8%	–	–
O=C1c2cccc(O)c2C(=O)c2c(O)cccc21 [Danthron]	21%	9%	–	–
CC(=O)O[C@H]1CC(=O)OC(C)(C)[C@@H]2CC(=O)[C@]3(C)[C@H](CC[C@@]4(C)[C@H](c5ccoc5)OC(=O)[C@H]5O[C@]543)[C@@]12C [Nomilin]	0%	22%	–	–
O=c1c(O)c(-c2ccc(O)cc2O)oc2cc(O)cc(O)c12 [Morin]	44%	17%	–	–
Oc1cc(O)c2c(c1)O[C@H](c1ccc(O)c(O)c1)[C@H](O)[C@H]2c1c(O)cc(O)c2c1O[C@H](c1ccc(O)c(O)c1)[C@H](O)C2 [Procyanidin B2]	14%	27%	–	–
C/C(=C\C(=O)CC(C)C(=O)O)[C@H]1C[C@H](O)[C@@]2(C)C3=C(C(=O)C[C@]12C)[C@@]1(C)CCC(=O)C(C)(C)[C@@H]1C[C@@H]3O (some centres unmarked) [Ganoderenic acid A]	0%	0%	–	–
O=C(NCNC(=O)NC1C(=O)NC(=O)N1CO)NC1C(=O)NC(=O)N1CO (centres unmarked) [Imidazolidinyl urea]	28%	10%	–	–
CC(=O)OCC1=CO[C@@H](OC(=O)CC(C)C)[C@H]2C1=C[C@H](OC(=O)CC(C)(C)OC(C)=O)[C@]21CO1 [Acevaltrate]	–	–	7%	21%
C=C[C@@]1(C)CC[C@H]2C(=CC[C@@H]3[C@]2(C)CCC[C@@]3(C)C(=O)O)C1 [Isopimaric acid]	–	–	0%	14%
C=C1CCC[C@]2(C)C[C@@H]3OC(=O)C(C)=C3C[C@@H]12 [Atractylenolide II]	10%	2%	–	–
O=C(O)[C@@H]1CCCN1 [L-Proline]	0%	0%	–	–
CC[C@H]1CN2CC[C@]3(C(=O)Nc4ccccc43)[C@@H]2C[C@@H]1/C(=C\OC)C(=O)OC [Rhynchophylline]	0%	8%	–	–
Cc1cc(=O)oc2cc(O)ccc12 [4-Methylumbelliferone]	4%	3%	–	–
CC(C)=C1CC[C@@H](C)CC1=O [Pulegone]	6%	5%	–	–
COc1ccc2c(c1OC)CN(C)CCc1cc3c(cc1C(=O)C2)OCO3 [Allocryptopine]	11%	18%	–	–
O=C(/C=C/c1ccccc1)OC[C@H]1O[C@@H](O[C@@H]2OC=C[C@H]3[C@H](O)[C@@H]4O[C@]4(CO)[C@@H]23)[C@H](O)[C@@H](O)[C@@H]1O [Picroside I]	6%	17%	–	–
COc1ccc(O)cc1 [Mequinol]	16%	11%	–	–
